Results as given in patent publication US20130029928A1 (priority 2010, published 2013).
Like-named read-outs stand apart in the source and are kept apart here.

Assay: Phase I study CXR1002-001: plasma pharmacokinetics (LC-MS/MS)
Assay type: in vivo, human
Conditions: for concentration at 528 hr / concentration at 528 h: Time 528 hr (Day 23); for concentration at 672 hr / concentration at 672 h: Time 672 hr (Day 29); for concentration at 696 hr / concentration at 696 h: Time 696 hr (Day 30); for concentration at 840 hr / concentration at 840 h: Time 840 hr (Day 36); for concentration at 864 hr / concentration at 864 h: Time 864 hr (Day 37); for concentration at 24 hr / concentration at 24 h: Time 24 hr (Day 2); for concentration at 168 hr / concentration at 168 h: Time 168 hr (Day 8); for concentration at 336 hr / concentration at 336 h: Time 336 hr (Day 15); for concentration at 360 hr / concentration at 360 h: Time 360 hr (Day 16)
Excerpt: PK samples, PD (fasting) samples, blood glucose, and blood triglyceride samples, were taken over a 6-week period.
Dose limiting toxicity (DLT) will be based on the toxicity assessments over the first 3-week period of the repeat dosing schedule. PK samples (single blood sample) were taken on the following basis: • Every 6 weeks during the repeat dosing phase • If dosing is interrupted or stopped, samples will be taken at intervals according to patient convenience • PK sampling for safety evaluation may take place at any time, as clinically indicated
Plasma samples were collected after the single 50 mg dose at the following timepoints: Pre-dose, and then 0.25, 0.5, 0.75, 1, 1.5, 2, 3, 4, 6, 24, 48, and 72 hours after administration and then once weekly at weeks 2, 3, 4, 5, and 6 (days 8, 15, 22, 29, and 36). For patients treated with the weekly repeat dose, plasma samples were collected at the following timepoints: Pre-dose and then 2, 3, 4 and 24 hours after administration for a total of 6 weeks. Thereafter a single sample was collected every 6 weeks for monitoring of exposure during long term treatment. Plasma samples were processed at site and stored at −80° C. prior to batch shipment to the analytical laboratory.

[1] = human, plasma, po, 1000 mg, Patient 041, 1000 mg weekly oral dose, read-out: Concentration (plasma level)
[2] = human, plasma, po, 1000 mg, Patient 042, 1000 mg weekly oral dose, read-out: Concentration (plasma level)
[3] = human, plasma, po, 1200 mg, Patient 036, 1200 mg weekly oral dose, read-out: Concentration (plasma level)
[4] = human, plasma, po, 1200 mg, Patient 037, 1200 mg weekly oral dose, read-out: Concentration (plasma level)
[5] = human, plasma, po, 1200 mg, Patient 038, 1200 mg weekly oral dose, read-out: Concentration (plasma level)

O=C(O)C(F)(F)C(F)(F)C(F)(F)C(F)(F)C(F)(F)C(F)(F)C(F)(F)F [CXR1002]
concentration at 528 hr [1]: 703 µM | concentration at 672 hr [1]: 670 µM | concentration at 674 hr [1]: 546 µM | concentration at 675 hr [1]: 740 µM | concentration at 676 hr (human, plasma, po, 1000 mg, Patient 041, 1000 mg weekly oral dose, Time 676 hr, read-out: Concentration (plasma level)): 802 µM | concentration at 696 hr [1]: 786 µM | concentration at 840 hr [1]: 715 µM | concentration at 842 hr [1]: 738 µM | concentration at 843 hr (human, plasma, po, 1000 mg, Patient 041, 1000 mg weekly oral dose, Time 843 hr, read-out: Concentration (plasma level)): 1010 µM | concentration at 864 hr [1]: 1210 µM | concentration at 2 hr [2]: 272 µM | concentration at 3 hr [2]: 359 µM | concentration at 4 hr [2]: 281 µM | concentration at 24 hr [2]: 239 µM | concentration at 168 hr [2]: 251 µM | concentration at 170 hr (human, plasma, po, 1000 mg, Patient 042, 1000 mg weekly oral dose, Time 170 hr, read-out: Concentration (plasma level)): 391 µM | concentration at 171 hr (human, plasma, po, 1000 mg, Patient 042, 1000 mg weekly oral dose, Time 171 hr, read-out: Concentration (plasma level)): 461 µM | concentration at 172 hr (human, plasma, po, 1000 mg, Patient 042, 1000 mg weekly oral dose, Time 172 hr, read-out: Concentration (plasma level)): 436 µM | concentration at 192 hr (human, plasma, po, 1000 mg, Patient 042, 1000 mg weekly oral dose, Time 192 hr (Day 9), read-out: Concentration (plasma level)): 502 µM | concentration at 336 hr [2]: 586 µM | concentration at 338 hr [2]: 645 µM | concentration at 339 hr [2]: 675 µM | concentration at 340 hr [2]: 636 µM | concentration at 360 hr [2]: 651 µM | concentration at 504 hr (human, plasma, po, 1000 mg, Patient 042, 1000 mg weekly oral dose, Time 504 hr (Day 22), read-out: Concentration (plasma level)): 765 µM | concentration at 506 hr (human, plasma, po, 1000 mg, Patient 042, 1000 mg weekly oral dose, Time 506 hr, read-out: Concentration (plasma level)): 872 µM | concentration at 507 hr (human, plasma, po, 1000 mg, Patient 042, 1000 mg weekly oral dose, Time 507 hr, read-out: Concentration (plasma level)): 952 µM | concentration at 508 hr (human, plasma, po, 1000 mg, Patient 042, 1000 mg weekly oral dose, Time 508 hr, read-out: Concentration (plasma level)): 987 µM | concentration at 528 hr [2]: 1230 µM | concentration at 672 hr [2]: 1040 µM | concentration at 674 hr [2]: 1180 µM | concentration at 675 hr [2]: 1190 µM | concentration at 696 hr [2]: 1280 µM | concentration at 840 hr [2]: 1250 µM | concentration at 842 hr [2]: 1140 µM | concentration at 843 hr (human, plasma, po, 1000 mg, Patient 042, 1000 mg weekly oral dose, Time 843 hr, read-out: Concentration (plasma level)): 1180 µM | concentration at 844 hr (human, plasma, po, 1000 mg, Patient 042, 1000 mg weekly oral dose, Time 844 hr, read-out: Concentration (plasma level)): 1160 µM | concentration at 864 hr [2]: 1250 µM | concentration at 2 hr [3]: 443 µM | concentration at 3 hr [3]: 431 µM | concentration at 4 hr [3]: 361 µM | concentration at 24 hr [3]: 708 µM | concentration at 168 hr [3]: 286 µM | concentration at 170 h (human, plasma, po, 1200 mg, Patient 036, 1200 mg weekly oral dose, Time 170 hr, read-out: Concentration (plasma level)): 680 µM | concentration at 171 h (human, plasma, po, 1200 mg, Patient 036, 1200 mg weekly oral dose, Time 171 hr, read-out: Concentration (plasma level)): 678 µM | concentration at 172 h (human, plasma, po, 1200 mg, Patient 036, 1200 mg weekly oral dose, Time 172 hr, read-out: Concentration (plasma level)): 665 µM | concentration at 192 h (human, plasma, po, 1200 mg, Patient 036, 1200 mg weekly oral dose, Time 192 hr (Day 9), read-out: Concentration (plasma level)): 295 µM | concentration at 336 hr [3]: 557 µM | concentration at 338 hr [3]: 840 µM | concentration at 339 hr [3]: 866 µM | concentration at 340 hr [3]: 930 µM | concentration at 360 hr [3]: 657 µM | concentration at 504 h (human, plasma, po, 1200 mg, Patient 036, 1200 mg weekly oral dose, Time 504 hr (Day 22), read-out: Concentration (plasma level)): 969 µM | concentration at 506 h (human, plasma, po, 1200 mg, Patient 036, 1200 mg weekly oral dose, Time 506 hr, read-out: Concentration (plasma level)): 1140 µM | concentration at 507 h (human, plasma, po, 1200 mg, Patient 036, 1200 mg weekly oral dose, Time 507 hr, read-out: Concentration (plasma level)): 1130 µM | concentration at 508 h (human, plasma, po, 1200 mg, Patient 036, 1200 mg weekly oral dose, Time 508 hr, read-out: Concentration (plasma level)): 1120 µM | concentration at 840 h [3]: 948 µM | concentration at 842 h [3]: 1250 µM | concentration at 844 h (human, plasma, po, 1200 mg, Patient 036, 1200 mg weekly oral dose, Time 844 hr, read-out: Concentration (plasma level)): 1230 µM | concentration at 864 h [3]: 1060 µM | concentration at 2 h [4]: 256 µM | concentration at 3 h [4]: 302 µM | concentration at 4 h [4]: 278 µM | concentration at 24 h [4]: 418 µM | concentration at 168 h [4]: 422 µM | concentration at 170 h (human, plasma, po, 1200 mg, Patient 037, 1200 mg weekly oral dose, Time 170 hr, read-out: Concentration (plasma level)): 634 µM | concentration at 171 h (human, plasma, po, 1200 mg, Patient 037, 1200 mg weekly oral dose, Time 171 hr, read-out: Concentration (plasma level)): 660 µM | concentration at 172 h (human, plasma, po, 1200 mg, Patient 037, 1200 mg weekly oral dose, Time 172 hr, read-out: Concentration (plasma level)): 712 µM | concentration at 192 h (human, plasma, po, 1200 mg, Patient 037, 1200 mg weekly oral dose, Time 192 hr (Day 9), read-out: Concentration (plasma level)): 841 µM | concentration at 336 h [4]: 780 µM | concentration at 338 h [4]: 1050 µM | concentration at 339 h [4]: 1040 µM | concentration at 340 h [4]: 1030 µM | concentration at 360 h [4]: 1140 µM | concentration at 504 h (human, plasma, po, 1200 mg, Patient 037, 1200 mg weekly oral dose, Time 504 hr (Day 22), read-out: Concentration (plasma level)): 1100 µM | concentration at 506 h (human, plasma, po, 1200 mg, Patient 037, 1200 mg weekly oral dose, Time 506 hr, read-out: Concentration (plasma level)): 1200 µM | concentration at 507 h (human, plasma, po, 1200 mg, Patient 037, 1200 mg weekly oral dose, Time 507 hr, read-out: Concentration (plasma level)): 1220 µM | concentration at 508 h (human, plasma, po, 1200 mg, Patient 037, 1200 mg weekly oral dose, Time 508 hr, read-out: Concentration (plasma level)): 1390 µM | concentration at 528 h [4]: 1390 µM | concentration at 672 h [4]: 1320 µM | concentration at 674 h [4]: 1460 µM | concentration at 675 h [4]: 1460 µM | concentration at 676 h (human, plasma, po, 1200 mg, Patient 037, 1200 mg weekly oral dose, Time 676 hr, read-out: Concentration (plasma level)): 1450 µM | concentration at 696 h [4]: 1530 µM | concentration at 2 h [5]: 313 µM | concentration at 3 h [5]: 314 µM | concentration at 4 h [5]: 298 µM | concentration at 24 h [5]: 242 µM | concentration at 168 h [5]: 268 µM | concentration at 170 h (human, plasma, po, 1200 mg, Patient 038, 1200 mg weekly oral dose, Time 170 hr, read-out: Concentration (plasma level)): 502 µM | concentration at 171 h (human, plasma, po, 1200 mg, Patient 038, 1200 mg weekly oral dose, Time 171 hr, read-out: Concentration (plasma level)): 481 µM | concentration at 172 h (human, plasma, po, 1200 mg, Patient 038, 1200 mg weekly oral dose, Time 172 hr, read-out: Concentration (plasma level)): 538 µM | concentration at 192 h (human, plasma, po, 1200 mg, Patient 038, 1200 mg weekly oral dose, Time 192 hr (Day 9), read-out: Concentration (plasma level)): 493 µM | concentration at 336 h [5]: 462 µM | concentration at 338 h [5]: 808 µM | concentration at 339 h [5]: 682 µM | concentration at 340 h [5]: 672 µM | concentration at 360 h [5]: 749 µM | concentration at 504 h (human, plasma, po, 1200 mg, Patient 038, 1200 mg weekly oral dose, Time 504 hr (Day 22), read-out: Concentration (plasma level)): 566 µM | concentration at 506 h (human, plasma, po, 1200 mg, Patient 038, 1200 mg weekly oral dose, Time 506 hr, read-out: Concentration (plasma level)): 658 µM | concentration at 507 h (human, plasma, po, 1200 mg, Patient 038, 1200 mg weekly oral dose, Time 507 hr, read-out: Concentration (plasma level)): 788 µM | concentration at 508 h (human, plasma, po, 1200 mg, Patient 038, 1200 mg weekly oral dose, Time 508 hr, read-out: Concentration (plasma level)): 699 µM | concentration at 528 h [5]: 746 µM | concentration at 672 h [5]: 682 µM | concentration at 674 h [5]: 932 µM | concentration at 675 h [5]: 885 µM | concentration at 676 h (human, plasma, po, 1200 mg, Patient 038, 1200 mg weekly oral dose, Time 676 hr, read-out: Concentration (plasma level)): 708 µM | concentration at 696 h [5]: 802 µM | concentration at 840 h [5]: 687 µM | concentration at 842 h [5]: 895 µM | concentration at 843 h (human, plasma, po, 1200 mg, Patient 038, 1200 mg weekly oral dose, Time 843 hr, read-out: Concentration (plasma level)): 955 µM | concentration at 844 h (human, plasma, po, 1200 mg, Patient 038, 1200 mg weekly oral dose, Time 844 hr, read-out: Concentration (plasma level)): 914 µM | concentration at 864 h [5]: 958 µM | gender difference in exposure (in vivo): no gender difference | accumulation (weekly dose): accumulates | maximal blood level reached (weekly repeat dose (Pharmacokinetic Summary)): 617 µM
